Measurements from ChEMBL document CHEMBL1914370, “A Pd-mediated new strategy to functionalized 2-aminochromenes: their in vitro evaluation as potential anti tuberculosis agents” (Bioorg Med Chem Lett, 2011).

Test system: Mycobacterium tuberculosis H37Rv
Test: Inhibition of Mycobacterium tuberculosis H37Rv chorismate mutase expressed in Escherichia coli BL21 (DE3) assessed as conversion of chorismate to prephenate at 50 uM after 5 mins by spectrophotometry

In order of falling inhibition:
1. N#CC1=C(N)Oc2ccc3ccccc3c2C1c1cccc(C#CCCCO)c1 (centres undefined)  70%
2. N#CC1=C(N)Oc2ccc3ccccc3c2C1c1cccc(C#CCCO)c1 (centres undefined)  69%
3. CC(C)(C)OC(=O)/C=C/c1cccc(C2C(C#N)=C(N)Oc3ccc4ccccc4c32)c1 (centres undefined)  64%
4. CCCCC#Cc1ccccc1C1C(C#N)=C(N)Oc2c1ccc1ccccc21 (centres undefined)  57%
5. CCCCCCC#Cc1ccccc1C1C(C#N)=C(N)Oc2c1ccc1ccccc21 (centres undefined)  55%
6. CCCCCCCCC#Cc1ccccc1C1C(C#N)=C(N)Oc2c1ccc1ccccc21 (centres undefined)  50%
7. COC(=O)/C=C/c1cccc(C2C(C#N)=C(N)Oc3ccc4ccccc4c32)c1 (centres undefined)  33%
8. N#CC1=C(N)Oc2c(ccc3ccccc23)C1c1cccc(C#CCCCO)c1 (centres undefined)  32%
9. CCOC(=O)/C=C/c1cccc(C2C(C#N)=C(N)Oc3ccc4ccccc4c32)c1 (centres undefined)  30%
10. N#CC1=C(N)Oc2c(ccc3ccccc23)C1c1cccc(C#CC2(O)CCCCC2)c1 (centres undefined)  28%
11. N#CC1=C(N)Oc2c(ccc3ccccc23)C1c1ccccc1C#CC1(O)CCCCC1 (centres undefined)  24%
12. CC(=O)/C=C/c1cccc(C2C(C#N)=C(N)Oc3ccc4ccccc4c32)c1 (centres undefined)  10%

Test system: not listed separately
Test: (§1) Inhibition of Mycobacterium tuberculosis H37Rv chorismate mutase expressed in Escherichia coli BL21 (DE3) assessed as conversion of chorismate to prephenate after 5 mins by spectrophotometry

`N#CC1=C(N)Oc2ccc3ccccc3c2C1c1cccc(C#CCCCO)c1` (centres undefined) gave an IC50 of 15.6 µM.

Test system: Mycobacterium tuberculosis H37Rv
Test: as §1

With `N#CC1=C(N)Oc2ccc3ccccc3c2C1c1cccc(C#CCCCO)c1` (centres undefined) the inhibition was “Dose-dependent effect”.
